These compounds were tested on HBsAg (assay: HBsAg assay (chemiluminescence immunoassay of secreted HBsAg)). Settings: Hepatitis B virus, HepG2.2.15, HBsAg secretion, HepG2.2.15 cells, CLIA of culture supernatant.
Format: cell-based, HBV
Description: HepG2.2.15 cells (Acs et al. Proc Natl Acad Sci USA, 84, (1987), 4641-4), a constitutively HBV-expressing cell line were cultured in DMEM+Glutamax-I medium (Invitrogen, Carlsbad, Calif., USA), supplemented with 10% fetal bovine serum (Invitrogen) and G418 (Invitrogen) at a final concentration of 200 mg/L and maintained in 5% CO2 at 37° C.
HepG2.2.15 cells were seeded in duplicate into white, 96-well plates at 1.5×10^4 cells/well. The cells were treated with a three-fold serial dilution series of the compounds in DMSO. The final DMSO concentration in all wells was 1% and DMSO was used as no drug control.
The HBsAg chemiluminescence immunoassay (CLIA) kit (Autobio Diagnostics Co., Zhengzhou, China, Catalog number: CL0310-2) was used to measure the levels of secreted HBV antigens semi-quantitatively. For the detection 50 μL/well culture supernatant was used and HBsAg was quantified using HBsAg chemiluminescence immunoassay (CLIA) kit (Autobio Diagnostics Co., Zhengzhou, China, Catalog number: CL0310-2), 50 μL of the supernatant was transferred to the CLIA assay plate and 50 μL of enzyme conjugate reagent was added into each well. The plates were sealed and gently agitated for 1 hour at room temperature. The supernatant-enzyme-mixture was discarded and wells were washed 6 times with 300 μL of PBS.
The residual liquid was removed by plating the CLIA plate right side down on absorbent tissue paper. 25 μL of substrates A and B were added to each well. Luminance was measured using a luminometer (Mithras LB 940 Multimode Microplate Reader) after 10 minutes incubation. Dose-response curves were generated and the IC50 value was extrapolated by using the E-WorkBook Suite (ID Business Solutions Ltd., Guildford, UK). The IC50 was defined as the compound concentration (or conditioned media log dilution) at which HBsAg secretion was reduced by 50% compared to the no drug control.
The compounds according to formula I were tested for their capacity to inhibit HBsAg as described herein.
`CC1c2cnc(-c3ncccn3)nc2CCN1c1cc(N2CC(C)(C)OC2=O)cc(F)n1` (stereo not shown) [Example 114, 3-[2-Fluoro-6-(5-methyl-2-pyrimidin-2-yl-7,8-dihydro-5H-pyrido[4,3-d]pyrimidin-6-yl)-4-pyridyl]-5,5-dimethyl-oxazolidin-2-one] was tested, and the IC50 was 8 nM.
With `CC1c2cnc(-c3ncccn3)nc2CCN1c1cc(F)nc(N2CCC2)c1` (stereo not shown) [Example 147, 6-[2-(Azetidin-1-yl)-6-fluoro-4-pyridyl]-5-methyl-2-pyrimidin-2-yl-7,8-dihydro-5H-pyrido[4,3-d]pyrimidine] the IC50 was 18 nM.
`COC1CCN(c2cc(F)cc(N3CCc4nc(-c5ncccn5)ncc4C3C)n2)C1` (stereo not shown) [Example 21, 6-[4-fluoro-6-(3-methoxypyrrolidin-1-yl)-2-pyridyl]-5-methyl-2-pyrimidin-2-yl-7,8-dihydro-5H-pyrido[4,3-d]pyrimidine] was tested, and the IC50 was 13 nM.
In the case of `CC1c2cnc(-c3ncccn3)nc2CCN1c1cc(N2CCCC2C(N)=O)cc(F)n1` (stereo not shown) [Example 42, 1-[2-fluoro-6-(5-methyl-2-pyrimidin-2-yl-7,8-dihydro-5H-pyrido[4,3-d]pyrimidin-6-yl)-4-pyridyl]pyrrolidine-2-carboxamide], the IC50 is reported as 319 nM.
Compound `CC(=O)N(C)c1cc(F)nc(N2CCc3nc(-c4ncccn4)ncc3C2C)c1` (stereo not shown) [Example 154, N-[2-Fluoro-6-(5-methyl-2-pyrimidin-2-yl-7,8-dihydro-5H-pyrido[4,3-d]pyrimidin-6-yl)-4-pyridyl]-N-methyl-acetamide] has an IC50 of 69 nM.
`CC1C(=O)NCCN1c1cc(F)cc(N2CCc3nc(-c4ncccn4)ncc3C2C)n1` (stereo not shown) [Example 116, 4-[4-fluoro-6-(5-methyl-2-pyrimidin-2-yl-7,8-dihydro-5H-pyrido[4,3-d]pyrimidin-6-yl)-2-pyridyl]-3-methyl-piperazin-2-one] gave an IC50 of 103 nM.
For `CC1c2cnc(-c3ncccn3)nc2CCN1c1cc(N2CCNC2=O)cc(F)n1` (stereo not shown) [Example 157, 1-[2-Fluoro-6-(5-methyl-2-pyrimidin-2-yl-7,8-dihydro-5H-pyrido[4,3-d]pyrimidin-6-yl)-4-pyridyl]imidazolidin-2-one], the IC50 was 6 nM.
`CC1c2cnc(-c3ncccn3)nc2CCN1c1cc(N2CC(C(=O)O)CC2=O)cc(F)n1` (stereo not shown) [Example 145, 1-[2-Fluoro-6-(5-methyl-2-pyrimidin-2-yl-7,8-dihydro-5H-pyrido[4,3-d]pyrimidin-6-yl)-4-pyridyl]-5-oxo-pyrrolidine-3-carboxylic acid] gave an IC50 of 5340 nM.
`CC1c2cnc(-c3ncccn3)nc2CCN1c1cc(NS(=O)(=O)c2ccccc2)cc(F)n1` (stereo not shown) [Example 77, N-[2-fluoro-6-(5-methyl-2-pyrimidin-2-yl-7,8-dihydro-5H-pyrido[4,3-d]pyrimidin-6-yl)-4-pyridyl]benzenesulfonamide] gave an IC50 of 554 nM.
Work on `CC1c2cnc(-c3ncccn3)nc2CCN1c1cc(F)nc(N2CC(F)(F)C2)c1` (stereo not shown) [Example 149, 6-[2-(3,3-Difluoroazetidin-1-yl)-6-fluoro-4-pyridyl]-5-methyl-2-pyrimidin-2-yl-7,8-dihydro-5H-pyrido[4,3-d]pyrimidine] yielded an IC50 of 20 nM.
For `CC1CN(c2cc(F)cc(N3CCc4nc(-c5ncccn5)ncc4C3C)n2)CCO1` (stereo not shown) [Example 5, 4-[4-fluoro-6-(5-methyl-2-pyrimidin-2-yl-7,8-dihydro-5H-pyrido[4,3-d]pyrimidin-6-yl)-2-pyridyl]-2-methyl-morpholine], the IC50 was 20 nM.
`COCCS(=O)(=O)N1CCN(c2cc(F)nc(N3CCc4nc(-c5ncccn5)ncc4C3C)c2)CC1` (stereo not shown) [Example 87, 6-[6-fluoro-4-[4-(2-methoxyethylsulfonyl)piperazin-1-yl]-2-pyridyl]-5-methyl-2-pyrimidin-2-yl-7,8-dihydro-5H-pyrido[4,3-d]pyrimidine] was tested, and the IC50 was 5 nM.
`CC1c2cnc(-c3ncccn3)nc2CCN1c1cc(N2CCN(CC(=O)O)CC2)cc(F)n1` (stereo not shown) [Example 94, 2-[4-[2-fluoro-6-(5-methyl-2-pyrimidin-2-yl-7,8-dihydro-5H-pyrido[4,3-d]pyrimidin-6-yl)-4-pyridyl]piperazin-1-yl]acetic acid] was tested, and the IC50 was 8860 nM.
